Source: US20240376069A1, “COMPOUNDS AND METHODS FOR LABELING LIPIDATED NUCLEOTIDES” (The Research Foundation for The State University of New York, priority 2023, published 2024)

Assays:
[1] = test system: HeLa cells; test: Cytotoxic assays of i^6A (4) towards HeLa cells; type: cell-based
From the text: In order to better detect the involvement of i^6A (4) in the transcription process of cellular RNA, we also tested the effect of i^6A (4) on cytotoxicity and optimized the concentration of i^6A (4) to treat cells.

[2] = test system: HeLa cells; test: Incorporation of i^6A into total RNA of eukaryotic cells, detected with PTAD-DBCO-FITC (8); type: cell-based
Protocol: Next, we will further test whether i^6A (4) can participate in the RNA transcription process in eukaryotic cells. First culture the HeLa cells in a six-well plate to 70%-80%. […] After 12 hours of culture, collect all cells and extract total RNA.
To the 1.5 mL Eppendorf tube containing PTAD-DBCO-FITC precursor (7, 10 μL, 10 mM solution in DMF) was added N-bromo succinimide (1.0 μL, 100 mM in DMF). The mixture was vortexed gently and formation of the light-red color was observed. The reagent was kept on ice and used for the i^6A-incorporated RNA labelling immediately. Labeling protocol is the same stated above.
HeLa cells was obtained from ATCC. HeLa cells were cultured in DMED medium with 10% fetal calf serum. Cells were maintained in a humidified incubator at 5% CO2 and 37° C. To label RNA in vivo, HeLa cells were cultured in 6-well plates to 70%-80%. […] Then it will be detected by agarose gel electrophoresis. […]
The i^6A-incorporated total RNA ([…], 20 ng/mL in DEPC water) was incubated with PTAD-DBCO-FITC ([…] of a 0.1 mM solution), shaken for 30 minutes at 0° C. The RNA was then analyzed through gel electrophoresis on a 1% agarose gel. […] Gels were analyzed by in-gel fluorescence measurements on a FluorChem® FC3 imager (Alpha Innotech). Fluorescence was measured with a blue light excitation wavelength (475 nm) and a green filter emission (537 nm).

[3] = Iodine-mediated cyclisation of nucleoside i^6A; type: physicochemical; settings: optimized concentration of iodine reagent
Protocol: Model reactions of i^6A nucleoside (4). The model reactions were carried out in DMSO-d6 in order to facilitate in situ NMR characterization without further purification. i^6A (4, 0.15 mmol) was dissolved in DMSO-d6 (0.5 mL), and iodine (0.45 mmol) was added. The mixture was stirred at 37° C. for 5 minutes and was taken out for ^1H NMR.
The reactions were conducted in DMSO-d^6 to enable in situ NMR characterization without the need for additional purification. i^6A (4, 0.15 mmol) was dissolved in DMSO-d^6 (0.5 mL), and iodine (0.45 mmol in DMSO-d^6) was subsequently added to the solution. The mixture was then stirred at 37° C. for 5 minutes. After this incubation period, the reaction mixture was subjected to ^1H NMR, ^13C NMR, HPLC, UV and LC-MS analysis.

[4] = Dynamic investigation of the Ene-ligation of i^6A with PTAD by proton NMR; type: physicochemical; settings: i^6A 30 mM, PTAD 0.15 mmol, CD3CN/D2O (v/v, 1/1), room temperature, within 5 minutes
Protocol: Nucleoside i^6A (4, 10 mg, 0.03 mmol) were dissolved in CD3CN/D2O (1.0 mL, v/v=1:1, final concentration=30 mM). PTAD (5, 26 mg, 0.15 mmol) was then added to the solution (final concentration=150 mM), and the reaction mixture was allowed to stand at room temperature. The ^1H NMR spectra were recorded by proton NMR (400 MHz).
The nucleoside i^6A (10 mg, 0.03 mmol) was dissolved in a mixture of CD3CN and D2O (0.5 mL, volume-to-volume ratio of 4:1, resulting in a final concentration of 60 mM). Subsequently, 4-phenyl-3H-1,2,4-triazole-3,5(4H)-dione (PTAD, 26 mg, 0.15 mmol, equivalent to 5 times the amount of i^6A) was added to the solution (resulting in a final concentration of 300 mM). The reaction mixture was then allowed to stand at room temperature. The ^1H NMR spectra were obtained using a 400 MHz ^1H NMR instrument with CD3CN/D2O as the solvent.

[5] = test system: prenylated tRNA; test: Direct fluorescent labelling of prenylated tRNA by Ene-ligation, in-gel fluorescence; settings: 10 μM probe; total RNAs isolated from E. coli
Protocol: tRNA (1.0 mg) isolated from E. coli using Zymo purification kit strictly following the instruction protocol was dissolved in PBS buffer (0.1 M, pH=7.4) and the PTAD-DBCO-Cy5 probe (1.0 mM) generated by in-situ oxidation with N-bromosuccinimide (NBS, 1 M in DMF) was added in one portion at 4° C. The mixture was incubated at 4° C. for 15 min in a sterile tube. And excess fluorescent probe was removed by 3K filter (Millipore) and the resulting nucleic acid was analyzed by in-gel fluorescence (Scheme S8).

[6] = molecular target: SelU (Escherichia coli, UniProt P33667); type: biochemical, E. coli; settings: for modified RNA residues after click reaction and RNase cleavage (recognition by SelU): HPLC and MS-spec data
[7] = test system: HEK293T cells; test: In-cell fluorescent labelling of SelU-mediated tRNA geranylation, confocal imaging; type: cell-based
Protocol: The HEK293T cells were washed twice with PBS, and trypsin was added for 1 min. Then 2.0 mL DMEM medium was added to the mixed well, followed by centrifuged at 1,000 r.p.m for 5 min, and the supernatant was discarded. Fresh medium was added to resuspend the cell pellet and cells were seeded in a confocal dish at the density of 0.5×1 05, the cells were gently mixed using pipette, and then placed in CO2 incubator. 150 mM sterile NaCl solution was prepared as a diluent for DNA and Vigofect (Vigorous Biotechnology Beijing Co., Ltd.). The culture medium in the confocal dish was then replaced with fresh complete culture medium before transfection, and the culture was incubated at 37° C. under 5% CO2 atmosphere. […] Configure the transfection working solution. […] Next, 2.5 μl VigoFect was added to the diluent (total 100 μl), and the solution was mixed gently and placed at room temperature for 5 min. Next, the diluted VigoFect was added into the diluted DNA solution gently, and the resulting transfection working solution was incubated at room temperature for 15 min. Subsequently, the working solution was added to the cell culture, mixed gently and incubated for 24 h. […] Cells were washed with PBS 3 times and then fixed with 4% paraformaldehyde for 15 min, and subsequently permeabilized with 0.5% Triton X-100 for 15 min. […]

[8] = molecular target: T7 RNA polymerase (Escherichia phage T7, UniProt P00573)
T7 RNA polymerase, sequence (P00573 whole entry): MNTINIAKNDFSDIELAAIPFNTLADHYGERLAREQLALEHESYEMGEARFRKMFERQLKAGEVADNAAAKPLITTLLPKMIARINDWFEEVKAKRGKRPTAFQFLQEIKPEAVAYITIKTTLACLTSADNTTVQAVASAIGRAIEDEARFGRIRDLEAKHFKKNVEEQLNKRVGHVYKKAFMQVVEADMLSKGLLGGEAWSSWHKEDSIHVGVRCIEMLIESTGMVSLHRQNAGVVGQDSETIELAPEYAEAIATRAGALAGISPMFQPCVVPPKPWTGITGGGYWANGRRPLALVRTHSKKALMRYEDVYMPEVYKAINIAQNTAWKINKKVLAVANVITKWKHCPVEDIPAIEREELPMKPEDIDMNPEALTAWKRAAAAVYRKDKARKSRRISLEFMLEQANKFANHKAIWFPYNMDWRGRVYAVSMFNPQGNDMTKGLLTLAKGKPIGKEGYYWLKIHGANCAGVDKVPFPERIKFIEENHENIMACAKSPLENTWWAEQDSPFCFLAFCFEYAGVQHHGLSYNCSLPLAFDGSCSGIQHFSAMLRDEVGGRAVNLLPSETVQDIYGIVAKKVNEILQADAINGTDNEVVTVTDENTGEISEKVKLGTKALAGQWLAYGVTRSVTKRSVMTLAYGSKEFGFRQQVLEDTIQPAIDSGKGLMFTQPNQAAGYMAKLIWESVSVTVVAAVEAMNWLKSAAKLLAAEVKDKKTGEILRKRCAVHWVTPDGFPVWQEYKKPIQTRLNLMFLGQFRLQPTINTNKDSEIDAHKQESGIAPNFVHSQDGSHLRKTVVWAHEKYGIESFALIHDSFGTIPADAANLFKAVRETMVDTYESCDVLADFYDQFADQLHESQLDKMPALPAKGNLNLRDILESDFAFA
Protocol: Using the T7P-EGFP constructed above as a template and rNTP as substrates, the reaction was carried out at 37° C. for 2 hours which was catalyzed by T7 RNA polymerase. After the reaction, the template DNA T7P-EGFP was degraded with DNase I. Finally, the RNA was precipitated and purified, and the transcription effect of the RNA was detected by agarose gel electrophoresis. The T7P-EGFP template sequence and HeLa genomic RNA were used as the control group.
EGFP-RNA was transcript with T7 transcription kit (Takara) in vitro. The system was kept at 37° C. for 2 hours. 1-4 extended to 6 hours. Then the templets were digested with DNase 1, 37° C. for 30 minutes. […] RNA concentration was determined with a Nanodrop One microvolume UV-Vis. spectrophotometer.

SelU, sequence (P33667 whole entry): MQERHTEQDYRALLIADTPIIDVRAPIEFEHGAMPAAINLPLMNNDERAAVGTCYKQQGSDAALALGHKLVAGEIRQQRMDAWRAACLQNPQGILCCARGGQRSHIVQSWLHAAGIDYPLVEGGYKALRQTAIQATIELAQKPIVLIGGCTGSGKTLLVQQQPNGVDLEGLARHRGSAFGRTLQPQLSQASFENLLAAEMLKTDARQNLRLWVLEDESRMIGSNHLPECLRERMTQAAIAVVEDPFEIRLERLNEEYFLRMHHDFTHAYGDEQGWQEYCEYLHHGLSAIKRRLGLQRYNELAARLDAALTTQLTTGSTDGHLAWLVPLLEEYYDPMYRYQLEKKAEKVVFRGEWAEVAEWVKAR

Compound: CC(C)=CCNc1ncnc2c1ncn2[C@@H]1O[C@H](CO)[C@@H](O)[C@H]1O [i^6A (4), N^6-(3-methylbut-2-enyl)-adenosine]
- cytotoxic concentration ([1]; HeLa cells): 800 µM
- effect on cell viability ([1]; concentration 800 μM): cell viability will be significantly inhibited
- effect on cells ([1]; concentration 2.0 mM): significant inhibitory effect on cells
- effect on cell viability ([1]; concentration within 400 μM): little effect on cell viability
- fluorescence signal of total RNA after PTAD-DBCO-FITC (8) staining ([2]; cells cultured in the presence of i^6A, none in control group): significant fluorescence signal was detected
- fluorescence signal of total RNA after PTAD-DBCO-FITC (8) staining ([2]; i^6A 800 μM): weaker RNA fluorescence signal
- time to full conversion with iodine [3]: less than 5 minutes
- conversion yield in reaction with PTAD [4]: approximately 50%

Compound: CN1/C(=C/C=C/C=C/C2=[N+](CCCCCC(=O)NCCC(=O)N3Cc4ccccc4-c4c(nnn4CCOc4ccc(N5C(=O)N=NC5=O)cc4)-c4ccccc43)c3ccccc3C2(C)C)C(C)(C)c2ccccc21.[Cl-] [PTAD-DBCO-Cy5]
- fluorescent signal of total RNAs treated with the probe [5]: a red fluorescent signal was observed

Compound: CC(C)=CCCC(C)CCOP(=O)(O)OP(=O)(O)O (centres unmarked) [Ge2, 3,7-dimethyloct-6-en-1-yl pyrophosphate]
- modified RNA residues after click reaction and RNase cleavage (recognition by SelU) [6]: no modified RNA residues

Compound: C/C(=C\COP(=O)(O)OP(=O)(O)O)CC/C=C(\C)CN=[N+]=[N-] [Ge5]
- red fluorescence in cells, two-step ACT-Flu approach ([7]; SelU co-transfected, probe DBCO-Cy5): strong red florescence
- fluorescent labelling of tRNA^Gln, Glu, Lys after SelU-mediated transfer of the ligand [6]: efficient fluorescent signal of tRNA was observed

Compound: C/C(=C\COP(=O)(O)OP(=O)(O)O)CC/C=C(\C)COC(=O)CCC(=O)N1Cc2ccccc2C#Cc2ccccc21 [Ge7]
- fluorescent labelling of tRNA^Gln, Glu, Lys after SelU-mediated transfer of the ligand [6]: failed

Compound: CC(C)=CCNc1ncnc2c1ncn2C1OC(COP(=O)(O)OP(=O)(O)OP(=O)(O)O)C(O)C1O (centres unmarked) [i^6ATP]
- recognition efficiency of T7 RNA polymerase ([8]; compared with K4, preliminary experiments): significantly higher than that of K4
- recognition efficiency by T7 RNA polymerase ([8]; compared with rATP): low comparing with rATP

Compound: CC(C)=CCC/C(C)=C/COP(=O)(O)OP(=O)(O)O [Ge1, (E)-3,7-dimethylocta-2,6-dien-1-yldiphosphate Tetrabutylammonium Trimer, reference compound]
- red fluorescence of geranylated tRNA in cells, direct labelling ([7]; transfected SelU and 5s (tRNA^Lys), probe PTAD-DBCO-Cy5): clearly showed the red fluorescence

Compound: CC(C)=CCCOP(=O)(O)OP(=O)(O)O [Ge3, 4-methylpent-3-en-1-yl Diphosphate Tetrabutyl Ammonium Trimer]
- modified RNA residues after click reaction and RNase cleavage (recognition by SelU) [6]: no modified RNA residues
